Consider seven compounds from ChEMBL document CHEMBL1143916, “Inhibition of 3(17)alpha-hydroxysteroid dehydrogenase (AKR1C21) by aldose reductase inhibitors” (Bioorg Med Chem, 2008).

The target in test [1] is T1, Aldo-keto reductase family 1 member C21 (Mus musculus, UniProt Q91WR5).
T1 sequence (Q91WR5 whole entry): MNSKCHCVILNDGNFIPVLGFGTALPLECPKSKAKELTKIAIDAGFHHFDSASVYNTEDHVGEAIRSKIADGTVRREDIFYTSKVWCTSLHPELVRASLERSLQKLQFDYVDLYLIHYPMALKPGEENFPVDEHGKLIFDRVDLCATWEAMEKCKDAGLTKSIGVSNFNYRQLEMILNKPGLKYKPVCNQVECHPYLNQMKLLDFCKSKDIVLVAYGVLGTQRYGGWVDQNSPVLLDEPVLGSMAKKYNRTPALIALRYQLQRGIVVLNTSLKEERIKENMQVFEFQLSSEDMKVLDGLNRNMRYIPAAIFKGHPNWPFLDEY
Description: Inhibition of mouse recombinant AKR1C21.

Test [2] addresses Aldo-keto reductase family 1 member B1 (Homo sapiens, UniProt P15121). Briefly: Inhibition of human recombinant aldose reductase.
The target in test [3] is T2, Aldo-keto reductase family 1 member C21 (Mus musculus) (UniProt Q91WR5).
T2 sequence (whole entry): T1 sequence (Q91WR5 whole entry)
Briefly: Inhibition of mouse recombinant AKR1C21 at 12 uM.

A word on the IC50: it is the point on the concentration scale where inhibition reaches its midpoint. Broadly, the Ki is a measure of affinity in units of concentration, obtained from inhibition or displacement. For the compound `O=C1CC2(C(=O)N1)C(=O)N(Cc1ccc(Br)cc1F)C(=O)c1ccc(F)cc12` (configuration not stated), in test [1], the half-maximal inhibitory concentration (IC50) worked out at 27.5 µM and the Ki is 10.4 µM.

Consider `C[C@@H]1O[C@@H](Oc2c(-c3ccc(O)c(O)c3)oc3cc(O)cc(O)c3c2=O)[C@H](O)[C@H](O)[C@H]1O` [QUERCITRIN], for which the IC50 in test [1] amounted to 33.3 µM.

On to `O=C(O)Cc1nn(Cc2nc3cc(C(F)(F)F)ccc3s2)c(=O)c2ccccc12` [ZOPOLRESTAT], for which the IC50 in test [1] is 158 µM.

On to `COc1ccc2c(C(=S)N(C)CC(=O)O)cccc2c1C(F)(F)F` [TOLRESTAT], for which, in test [1], the IC50 was 48 µM and the Ki came to 22 µM.

Take `O=c1c(O)c(-c2ccc(O)c(O)c2)oc2cc(O)cc(O)c12` [QUERCETIN]: in test [1], the IC50 came to 6.9 µM and the Ki is 11 µM.

The inhibition is the percentage by which the read-out fell short of the control. For `O=c1cc(-c2ccccc2)oc2cc(O)cc(O)c12` [CHRYSIN], in test [2], the IC50 was 8.5 µM. The inhibition in test [3] is 36%.

With `O=c1c(O)c(-c2cc(O)c(O)c(O)c2)oc2cc(O)cc(O)c12` [MYRICETIN], the IC50 in test [1] came out at 12.3 µM; in test [2], 29 µM.
